# Test results taken from patent US20200384003A1, “TRITERPENOID-CONTAINING PHARMACEUTICAL COMPOSITION AND USE THEREOF” (SHANGHAI LANMU CHEMICALS CO., LTD., priority 2017, published 2020).
# Legend:
# [1] = molecular target: T1, mutated lens protein (αB-crystallin R120G) (Homo sapiens, UniProt P02511, R120G); experiment: Intracellular mutated lens protein aggregation inhibition experiment in transfected HeLa cells (Example 21); assay type: cell-based; settings: 10 μM, treated 3.5 hours, then 6.5 h normal medium, fewer + = better
# T1 construct: expressed in transfected cells; host or cells: HeLa
# T1 sequence (P02511 1-175 R120G): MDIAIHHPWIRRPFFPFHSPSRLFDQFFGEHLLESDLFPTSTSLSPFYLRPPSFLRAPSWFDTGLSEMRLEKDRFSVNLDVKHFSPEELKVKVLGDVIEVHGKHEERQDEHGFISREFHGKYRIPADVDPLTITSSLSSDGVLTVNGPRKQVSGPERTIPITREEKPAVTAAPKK
# Experimental: In this example, apart of the specific compounds obtained in Example 19 and Example 20 were selected for intracellular mutated lens protein (αB-crystallin R120G) aggregation inhibition experiment (experimental method was described in Chinese patent CN201580057679). The aggregation inhibition activities of compound I and compound II in the present invention on lens protein mutants were evaluated to screen a compound which was effective in treating related disease such as cataract.
# The tumor cell line HeLa was selected as a host cell transfected with the mutant lens protein (αB-crystallin […]) expression plasmid, the medium was DMEM with […], and the culture conditions were 37° C., saturated humidity and 5% carbon dioxide cell incubator. Mycoplasma was negative. The transfection process is that the appropriate number of HeLa cells were inoculated on the pre-coated slides. When fully adherent cells grew to about 75% cell density, the expression vector was transfected with liposome. After 4 hours of transfection, the medium was changed to normal medium. Then the HeLa cells were cultured in the cell incubator for 13 hours to induce the expression of exogenous mutant lens protein. After changing the medium, the replaced new medium contained various compounds of the formula I and formula II of the present invention to be tested (DMSO was used as solvent in all mother fluid), wherein the final concentration of each compound was 10 μM, the negative control was 1.5% DMSO solvent, and the positive control was lanosterol (10 μM). The HeLa cells were treated with the medium containing the test compound, 1.5% DMSO solvent and lanosterol for 3.5 hours, respectively, and the normal fresh medium containing no DMSO, test compound or lanosterol was exchanged and the cells were cultured for another 6.5 h, then Anti-p62 antibody and DAPI were used for routine cellular immunofluorescence detection. The field of vision of three positions per slide was randomly selected, the ratio of cells containing aggregated crystalline proteins (lens protein aggregates) was calculated, and the effect of each test compound on intracellular aggregation of mutant lens proteins was finally determined, the results were shown in Table 19.
# [2] = Heat stability at 80° C. versus 4° C., HPLC and appearance (Example 18); assay type: physicochemical; settings: for appearance after heat storage: compared with 4° C.
# Experimental: The heatl stabilities of inotodiol and trametenolic acid were tested, and lanosterol was used as a reference at the same time.
# [3] = tested on: diabetic metabolite cataract; experiment: Therapeutic effect on diabetic metabolite cataract, streptozotocin model (Example 11); assay type: in vivo, SD rats; settings: right eye of diabetic rat, pictures before and after 2 months of treatment (FIG. 25-29)
# [4] = Pharmacokinetic study, drug in aqueous humor after eye glass cavity injection (Example 5); assay type: in vivo; settings: SD rats, 5 μl injected into each glass cavity, detected 10 days after the surgery
# Experimental: SD rats (about 10 weeks old, male or female) were anesthetized by intraperitoneal injection of pentobarbital sodium and pupil was dilated, then eye glass cavity injection surgery was performed. All animals were injected with the same kind of drugs in both eyes. The amount of drug injected into each glass cavity was 5 μl, and the number of test animals per drug formulation (Example 1, Example 2 and Comparative Example 1) was four, and the drug metabolism in the aqueous humor was detected 10 days after the surgery.
smiles,measurement,setting,value
CC(C)=CCCC(C=O)[C@H]1CC[C@@]2(C)C3=C(CC[C@]12C)[C@@]1(C)CC[C@H](O)C(C)(C)C1CC3 (some centres unmarked) [Compound 2″],Inhibitory effect (percentage of cells containing aggregated proteins),[1],++ (>30% and <45% of the cells in the field of vision contained protein aggregates)
C[C@H](C(O)/C=C/C(C)(C)O)[C@H]1CC[C@@]2(C)C3=C(CC[C@]12C)[C@@]1(C)CC[C@H](O)C(C)(C)C1CC3 (some centres unmarked) [Compound 4″],Inhibitory effect (percentage of cells containing aggregated proteins),[1],+ (<30% of the cells in the field of vision contained protein aggregates)
C[C@H](C(O)C/C=N/O)[C@H]1CC[C@@]2(C)C3=C(CC[C@]12C)[C@@]1(C)CC[C@H](O)C(C)(C)C1CC3 (some centres unmarked) [Compound 5],Inhibitory effect (percentage of cells containing aggregated proteins),[1],+ (<30% of the cells in the field of vision contained protein aggregates)
CC(C)=CCC[C@H](C=O)[C@H]1CC[C@@]2(C)C3=C(CC[C@]12C)[C@@]1(C)CCC(=O)C(C)(C)C1CC3 (some centres unmarked) [Compound 5″],Inhibitory effect (percentage of cells containing aggregated proteins),[1],++ (>30% and <45% of the cells in the field of vision contained protein aggregates)
CC(=O)[C@@H](C)[C@H]1CC[C@@]2(C)C3=C(CC[C@]12C)[C@@]1(C)CC[C@H](O)C(C)(C)C1CC3 (some centres unmarked) [Compound 6″],Inhibitory effect (percentage of cells containing aggregated proteins),[1],++ (>30% and <45% of the cells in the field of vision contained protein aggregates)
C=C(C)C(=O)CC[C@@H](C(=O)O)[C@H]1CC[C@@]2(C)C3=C(CC[C@]12C)[C@@]1(C)CC[C@H](O)C(C)(C)C1CC3 (some centres unmarked) [Compound 7″],Inhibitory effect (percentage of cells containing aggregated proteins),[1],++ (>30% and <45% of the cells in the field of vision contained protein aggregates)
COC(C)(C)C(O)CC(O)[C@@H](C)[C@H]1CC[C@@]2(C)C3=C(CC[C@]12C)[C@@]1(C)CC[C@H](O)C(C)(C)C1CC3 (some centres unmarked) [Compound 8″],Inhibitory effect (percentage of cells containing aggregated proteins),[1],++ (>30% and <45% of the cells in the field of vision contained protein aggregates)
CO[C@H]1CC[C@]2(C)C3=C(CCC2C1(C)C)[C@]1(C)CC[C@H]([C@H](C)C(O)CCC(C)(C)OC)[C@@]1(C)CC3 (some centres unmarked) [Compound 9],Inhibitory effect (percentage of cells containing aggregated proteins),[1],++ (>30% and <45% of the cells in the field of vision contained protein aggregates)
CC(=O)O[C@H]1CC[C@]2(C)C3=C(CCC2C1(C)C)[C@]1(C)CC[C@H]([C@H](C)C(O)CC2OC2(C)C)[C@@]1(C)CC3 (some centres unmarked) [Compound 10],Inhibitory effect (percentage of cells containing aggregated proteins),[1],+ (<30% of the cells in the field of vision contained protein aggregates)
C[C@H](C(O)CC(Br)C(C)(C)O)[C@H]1CC[C@@]2(C)C3=C(CC[C@]12C)[C@@]1(C)CC[C@H](O)C(C)(C)C1CC3 (some centres unmarked) [Compound 13],Inhibitory effect (percentage of cells containing aggregated proteins),[1],++ (>30% and <45% of the cells in the field of vision contained protein aggregates)
C[C@H](C(O)CCC(C)(C)O)[C@H]1CC[C@@]2(C)C3=C(CC[C@]12C)[C@@]1(C)CC[C@H](O)C(C)(C)C1CC3 (some centres unmarked) [Compound 15],Inhibitory effect (percentage of cells containing aggregated proteins),[1],+ (<30% of the cells in the field of vision contained protein aggregates)
CC(C)(O)CCC[C@@H](C(=O)O)[C@H]1CC[C@@]2(C)C3=C(CC[C@]12C)[C@@]1(C)CC[C@H](O)C(C)(C)C1CC3 (some centres unmarked) [Compound 15′],Inhibitory effect (percentage of cells containing aggregated proteins),[1],+ (<30% of the cells in the field of vision contained protein aggregates)
C[C@H](C(O)CC(O)C(C)(C)O)[C@H]1CC[C@@]2(C)C3=C(CC[C@]12C)[C@@]1(C)CC[C@H](O)C(C)(C)C1CC3 (some centres unmarked) [Compound 17],Inhibitory effect (percentage of cells containing aggregated proteins),[1],++ (>30% and <45% of the cells in the field of vision contained protein aggregates)
C=C(C)C(=O)CC(O)C(C)[C@H]1CC[C@@]2(C)C3=C(CC[C@]12C)[C@@]1(C)CC[C@H](O)C(C)(C)C1CC3 (some centres unmarked) [Compound 17″],Inhibitory effect (percentage of cells containing aggregated proteins),[1],++ (>30% and <45% of the cells in the field of vision contained protein aggregates)
C[C@H](C(O)CC(=O)C(C)(C)O)[C@H]1CC[C@@]2(C)C3=C(CC[C@]12C)[C@@]1(C)CC[C@H](O)C(C)(C)C1CC3 (some centres unmarked) [Compound 20],Inhibitory effect (percentage of cells containing aggregated proteins),[1],++ (>30% and <45% of the cells in the field of vision contained protein aggregates)
CC(C)(O)C(=O)CC[C@@H](C(=O)O)[C@H]1CC[C@@]2(C)C3=C(CC[C@]12C)[C@@]1(C)CC[C@H](O)C(C)(C)C1CC3 (some centres unmarked) [Compound 20′],Inhibitory effect (percentage of cells containing aggregated proteins),[1],++ (>30% and <45% of the cells in the field of vision contained protein aggregates)
C[C@H](C(O)CCC(C)(C)O)[C@H]1CC[C@@]2(C)C3=CCC4C(C)(C)[C@@H](O)CC[C@]4(C)C3=CC[C@]12C (some centres unmarked) [Compound 21],Inhibitory effect (percentage of cells containing aggregated proteins),[1],+ (<30% of the cells in the field of vision contained protein aggregates)
CC(C)(O)CCC[C@@H](C(=O)O)[C@H]1CC[C@@]2(C)C3=CCC4C(C)(C)[C@@H](O)CC[C@]4(C)C3=CC[C@]12C (some centres unmarked) [Compound 21′],Inhibitory effect (percentage of cells containing aggregated proteins),[1],++ (>30% and <45% of the cells in the field of vision contained protein aggregates)
C[C@H](C(O)CCC(C)(C)O)[C@H]1CC[C@@]2(C)C3=C(CC[C@]12C)[C@@]1(C)C[C@@H](F)[C@H](O)C(C)(C)C1CC3 (some centres unmarked) [Compound 23],Inhibitory effect (percentage of cells containing aggregated proteins),[1],+ (<30% of the cells in the field of vision contained protein aggregates)
C[C@H](C(O)CCC(C)(C)O)[C@H]1CC[C@@]2(C)C3=C(CC[C@]12C)[C@@]1(C)C[C@@H](F)[C@@H](O)C(C)(C)C1CC3 (some centres unmarked) [Compound 24],Inhibitory effect (percentage of cells containing aggregated proteins),[1],+ (<30% of the cells in the field of vision contained protein aggregates)
C[C@H](C(O)CCC(C)(C)O)[C@H]1CC[C@@]2(C)C3=C(CC[C@]12C)[C@@]1(C)C[C@@H](O)[C@H](O)C(C)(C)C1CC3 (some centres unmarked) [Compound 25],Inhibitory effect (percentage of cells containing aggregated proteins),[1],+ (<30% of the cells in the field of vision contained protein aggregates)
C/C(=C\CC(O)[C@@H](C)[C@H]1CC[C@@]2(C)C3=C(CC[C@]12C)[C@@]1(C)CC[C@H](O)C(C)(C)C1CC3)C(=O)O (some centres unmarked) [Compound 27],Inhibitory effect (percentage of cells containing aggregated proteins),[1],+ (<30% of the cells in the field of vision contained protein aggregates)
C/C(=C\CC(O)[C@@H](C)[C@H]1CC[C@@]2(C)C3=C(CC[C@]12C)[C@@]1(C)CC[C@H](O)C(C)(C)C1CC3)CO (some centres unmarked) [Compound 32],Inhibitory effect (percentage of cells containing aggregated proteins),[1],+ (<30% of the cells in the field of vision contained protein aggregates)
C[C@H](C(O)C/C=C/C(=O)O)[C@H]1CC[C@@]2(C)C3=C(CC[C@]12C)[C@@]1(C)CC[C@H](O)C(C)(C)C1CC3 (some centres unmarked) [Compound 34],Inhibitory effect (percentage of cells containing aggregated proteins),[1],+ (<30% of the cells in the field of vision contained protein aggregates)
C[C@H](C(O)C/C=C/C(=O)O)[C@H]1CC[C@@]2(C)C3=C(CC[C@]12C)[C@@]1(C)C[C@@H](F)[C@H](O)C(C)(C)C1CC3 (some centres unmarked) [Compound 42],Inhibitory effect (percentage of cells containing aggregated proteins),[1],+ (<30% of the cells in the field of vision contained protein aggregates)
"CC(C)=CCC[C@@H](C(=O)O)[C@H]1CC[C@@]2(C)C3=C(CC[C@]12C)[C@@]1(C)CC[C@H](O)C(C)(C)C1CC3 (some centres unmarked) [Trametenolic acid, trametenolic acid]",appearance after heat storage,[2]; 80° C. for 1 week,did not change
same,purity after heat storage,[2]; 80° C. for 2 weeks,above 93%
same,appearance after heat storage,[2]; 80° C. for 2 weeks,no significant change in appearance and purity
same,content after heat storage,"[2]; 80° C. for 1 day, HPLC",97%
same,content after heat storage,"[2]; 80° C. for 2 day, HPLC",96%
same,content after heat storage,"[2]; 80° C. for 3 day, HPLC",96%
same,initial experiment purity,"[2]; stored at 4° C., HPLC",98%
same,turbid area of lens / course of cataract after administration,[3],reduced in a large extent
same,decrease of drug concentration in aqueous humor compared with initial concentration immediately after injection,[4],8%±1.5%
same,Inhibitory effect (percentage of cells containing aggregated proteins),[1],+ (<30% of the cells in the field of vision contained protein aggregates)
